# Legend:
# TIP60 = target: T1, TIP60 (Homo sapiens, UniProt Q92993); assay: TIP60 activity by acetylation of TIP60 or its substrate FOXP3 in transfected 293T cells (Ac-K immunoprecipitation, Western blot); assay type: cell-based; conditions: 4 hours
# T1 construct: expressed in transfected cells; host or cells: 293T cells
# Procedure: FIG. 11 illustrate the effect of B7G on TIP60. TIP60 activity was assessed by examining acetylation of TIP60 or its substrate FOXP3. Both TIP60 and FOXP3 were overexpressed in 293T cells. Acetylated proteins were first immunoprecipitated with the acetyl-lysine specific antibody Ac-K and then blotted with HRP conjugated antibodies to expression tags (HA for FOXP3 or FLAG for TIP60).
# TIP60 is known to have acetyl transferase activity to acetylate itself (auto-acetylation) or substrates including FOXP3. To examine activity of B7G on TIP60, 293T cells were transfected with Flag-tagged TIP60 and HA-tagged FOXP3. 24 hours after transfection, cells were treated with various concentrations of B7G for 4 hours before cell lysates were collected. Acetylated proteins were precipitated by anti-acetyl lysine antibody Ac-K. FOXP3 and TIP60 in the lysate or precipitated by Ac-K antibody were identified by anti-HA-HRP and anti-FLAG-HRP respectively.
# [1] = tested on: Treg suppression of T cell proliferation; assay: Treg suppression assay (CFSE T cell proliferation, 3 days, varying Treg:T cell ratios); assay type: cell-based; conditions: for suppression of Treg in vitro: 500x dilution of 10 mM, 20 micromolar, FIG. 10; for T cell proliferation (percentage of proliferated cells): Treg:Teff=1:1
# From the text: FIG. 8. are flow cytometry dataplots showing the enhancement of TIP60 inhibitor B7 suppression of Treg in vitro. Individual peaks reflect number of cells divisions under the standard test conditions (3 days), where the cell populations are dyed with CFSE (carboxyfluorescen diacetate, succimidyl ester). FIG. 8A are the data for DMSO without B7; FIG. 8B are the data for B7-1000×; FIG. 8C are the data for B7-4000×; and FIG. 8D are the data for B7-8000. In each case, the 1000×/4000×/8000× refers to the dilution factor of the B7, from an original 10 mM solution of B7; e.g, 1000× represents a solution diluted by a factor of 1000, so as to result in a 10 micromolar solution. The numbers in the upper left corner of the plot (e.g., 88, 81, 74, 65, and 37 of FIG. 8A) refer to the measured percentage of proliferated cells.
# FIG. 10. are flow cytometry dataplots showing the enhancement of TIP60 inhibitors B7 suppression of Treg in vitro. FIG. 10A are the data for DMSO without any B7-type inhibitor; FIG. 10B are the data for B7-500×; FIG. 10C are the data for B7A-500×; FIG. 10D are the data for B7B-500; and FIG. 10D are the data for B7C-500×. In each case, the 500× refers to the dilution factor of the B7/B7A/B7B/B7C, from an original 10 mM solution of the compound; e.g, 500× represents a solution diluted by a factor of 500, so as to result in a 20 micromolar solution.
# Several exemplary compounds of the present invention were screened at 10 μg/ml in vitro, at varying Treg:T cell ratios, using standard cell proliferation techniques (3 days, using CSFE dyes). Such techniques are well understood by those skilled in the art. For example, see Akimova T, Ge G, Golovina T, Mikheeva T, Wang L, Riley J L, Hancock W W., “Histone/protein deacetylase inhibitors increase suppressive functions of human FOXP3+ Tregs,” Clin Immunol. 2010 September; 136(3):348-63; Tao R, Hancock W W., Resistance of FOXP3+ regulatory T cells to Nur77-induced apoptosis promotes allograft survival,” PLoS One. 2008 May 28; 3(5):e2321; Tao R, Wang L, Murphy K M, Fraser C C, Hancock W W., “Regulatory T cell expression of herpesvirus entry mediator suppresses the function of B and T lymphocyte attenuator-positive effector T cells.,” J. Immunol. 2008 May 15; 180(10):6649-55; and Tao R, de Zoeten E F, Ozkaynak E, Chen C, Wang L, Porrett P M, Li B, Turka L A, Olson E N, Greene M I, Wells A D, Hancock W W., “Deacetylase inhibition promotes the generation and function of regulatory T cells,” Nat. Med. 2007 November; 13(11):1299-307 for the protocols used herein. Each of these references is incorporated by reference herein, at least for this purpose.
# T cell proliferation was unimpaired in the absence of Treg cells (see left panels in FIG. 8A-D), but was increasingly impaired at increasing Treg concentration (for example, in FIG. 8A, increasing Treg:Tcell ratio from 0:1 to 1:1 reduced proliferation from 88% to 37% under otherwise identical conditions). […] Efficacy was also seen at 1 μg/ml for some compounds.
# [2] = tested on: dextran sodium sulfate (DSS) colitis; assay: DSS model of colitis, reversal of established colitis; assay type: in vivo, mice
# Procedure: FIG. 12A-C are the results of experiments described in Example 5. […] FIG. 12C provide graphical data for weight loss, bleeding score, and stool consistency (i.e., higher score reflects higher levels of diarrhea), wherein the mice were first subjected to DSS irritation, then subset populations were remedially treated after 8 days with the compound having Structure B7.
# In a first test, the effects of exposure to dextran sodium sulfate (DSS) were evaluated, which results in a partially CD4-dependent inflammatory model of colitis, in wildtype (WT) versus TIP60dn C57BL/6 mice (8 mice/group).
# Data were also generated using the compound of Structure B7 in the DSS model, in an experiment designed to test the ability of TIP60 inhibitor therapy to reverse established colitis by waiting until mice had ˜15% weight loss. In marked contrast to use of carrier DMSO alone, TIP60 inhibitor therapy (2 mg/kg/d, i.p.) reversed weight loss (p<0.01), blood in the stool (p<0.01) and diarrhea (p<0.005) (see FIG. 12C) and maintained colon length (p<0.01).
# FOXP3 = FOXP3 bound on chromatin in SZ-4 T cells (Western blot); assay type: cell-based; conditions: FIG. 9
# [3] = 2 mg/kg/d i.p., vs carrier DMSO, p<0.01
# T1 sequence (Q92993 whole entry, species assumed): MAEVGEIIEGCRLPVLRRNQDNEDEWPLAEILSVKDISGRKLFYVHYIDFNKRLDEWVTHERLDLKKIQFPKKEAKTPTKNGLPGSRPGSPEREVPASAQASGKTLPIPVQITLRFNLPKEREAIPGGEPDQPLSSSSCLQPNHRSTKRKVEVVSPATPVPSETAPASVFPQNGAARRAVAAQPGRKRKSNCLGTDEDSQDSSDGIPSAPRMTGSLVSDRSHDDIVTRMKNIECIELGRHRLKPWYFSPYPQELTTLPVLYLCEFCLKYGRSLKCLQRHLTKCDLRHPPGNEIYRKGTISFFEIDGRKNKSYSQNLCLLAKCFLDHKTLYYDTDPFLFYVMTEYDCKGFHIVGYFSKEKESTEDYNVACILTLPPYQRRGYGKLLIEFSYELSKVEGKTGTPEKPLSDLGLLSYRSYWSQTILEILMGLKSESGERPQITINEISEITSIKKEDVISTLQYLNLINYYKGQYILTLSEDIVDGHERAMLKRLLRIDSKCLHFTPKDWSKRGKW
compound,measurement,setting,value
COc1ccc(CCN2CC(C(=O)Nc3ccc(F)c(Cl)c3)CC2=O)cc1OC (stereo not drawn) [Compound B7G],Acetylated FOXP3,TIP60; 32 μg/ml,reduced significantly
same,Acetylated TIP60,TIP60; 32 μg/ml,reduced significantly
same,TIP60 auto-acetylation,TIP60; lower concentration,slightly increase
same,TIP60 expression level in total cell lysate,"TIP60; various concentrations, FLAG-HRP",not significantly affected
same,FOXP3 expression level in total cell lysate,"TIP60; various concentrations, HA-HRP",not significantly affected
O=C(Nc1ccc(Cl)cc1)C1CC(=O)N(CCc2ccc(Cl)cc2)C1 (stereo not drawn) [Compound B7A],suppression of Treg in vitro,[1],enhancement
COc1ccc(NC(=O)C2CC(=O)N(CCc3ccc(Cl)cc3)C2)cc1 (stereo not drawn) [Compound B7B],suppression of Treg in vitro,[1],enhancement
Cc1ccc(NC(=O)C2CC(=O)N(CCc3ccc(Cl)cc3)C2)cc1 (stereo not drawn) [Compound B7],weight loss,"[2]; 2 mg/kg/d i.p., started at ~15% weight loss, vs carrier DMSO, p<0.01",reversed
same,diarrhea,"[2]; 2 mg/kg/d i.p., vs carrier DMSO, p<0.005",reversed
same,blood in the stool,[2]; [3],reversed
same,colon length,[2]; [3],maintained
same,colon length relative to unstressed control animal,"[2]; single animal, 3% DSS then B7",about 94%
same,spleen size relative to control,"[2]; single animal, 3% DSS then B7",comparable in size to that of the control
same,suppression of Treg in vitro,[1],enhancement
same,Treg activity (decreasing T cell proliferation),"[1]; B7 2.5 to 10 μM, dose dependent",enhanced the Treg activity
same,T cell proliferation in the absence of Treg cells,"[1]; Treg:T cell 0:1, FIG. 8A-D left panels",unimpaired
same,T cell proliferation (percentage of proliferated cells),"[1]; highest B7 dose 10 μM (FIG. 8B, 1000x dilution)",25%
same,T cell proliferation (percentage of proliferated cells),"[1]; intermediate B7 dose (FIG. 8C, 4000x dilution of 10 mM)",30%
same,T cell proliferation (percentage of proliferated cells),"[1]; lowest B7 dose (FIG. 8D, 8000x dilution of 10 mM; text: 2.5 μM)",37%
Cc1ccc2cc(NC(=O)C3CC(=O)N(CCc4ccc(Cl)cc4)C3)ccc2n1 (stereo not drawn) [Compound B7C],FOXP3 bound on chromatin,FOXP3,intervening with FOXP3 bound on chromatin
same,suppression of Treg in vitro,[1],enhancement
